{
  "source": "paper PMC8772941",
  "about": "(Biomedicines, 2021)",
  "key": {"D2R S193A": {"tested_on": "D2R S193A", "design": "method as in PMID 29325769", "settings": "log value from radioligand binding; cited from earlier work"}, "WT D2R [1]": {"tested_on": "WT D2R", "design": "method as in PMID 29325769", "settings": "log value from radioligand binding; cited from earlier work"}, "D2R": {"tested_on": "D2R", "settings": "in the presence of µM concentrations of DA; pre-incubation protocols; cited from earlier work"}, "GIRK1/4": {"target": "T1, GIRK1/4 (Homo sapiens, UniProt P48544+P48549)", "T1 sequence (P48549 1-501)": "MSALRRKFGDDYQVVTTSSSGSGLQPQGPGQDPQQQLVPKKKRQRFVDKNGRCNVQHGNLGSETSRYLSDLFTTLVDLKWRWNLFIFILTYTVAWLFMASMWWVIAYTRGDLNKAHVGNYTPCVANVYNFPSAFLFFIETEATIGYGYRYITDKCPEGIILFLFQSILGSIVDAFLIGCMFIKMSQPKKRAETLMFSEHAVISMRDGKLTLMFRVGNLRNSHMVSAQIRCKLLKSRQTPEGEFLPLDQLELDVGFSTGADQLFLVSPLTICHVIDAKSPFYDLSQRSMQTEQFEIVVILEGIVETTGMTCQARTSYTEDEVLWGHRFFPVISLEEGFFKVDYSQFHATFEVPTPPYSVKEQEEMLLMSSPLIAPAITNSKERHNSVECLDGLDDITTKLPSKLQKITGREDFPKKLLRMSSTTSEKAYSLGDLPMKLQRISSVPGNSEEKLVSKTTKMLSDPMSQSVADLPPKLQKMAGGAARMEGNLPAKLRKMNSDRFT", "T1 sequence (P48544 1-419)": "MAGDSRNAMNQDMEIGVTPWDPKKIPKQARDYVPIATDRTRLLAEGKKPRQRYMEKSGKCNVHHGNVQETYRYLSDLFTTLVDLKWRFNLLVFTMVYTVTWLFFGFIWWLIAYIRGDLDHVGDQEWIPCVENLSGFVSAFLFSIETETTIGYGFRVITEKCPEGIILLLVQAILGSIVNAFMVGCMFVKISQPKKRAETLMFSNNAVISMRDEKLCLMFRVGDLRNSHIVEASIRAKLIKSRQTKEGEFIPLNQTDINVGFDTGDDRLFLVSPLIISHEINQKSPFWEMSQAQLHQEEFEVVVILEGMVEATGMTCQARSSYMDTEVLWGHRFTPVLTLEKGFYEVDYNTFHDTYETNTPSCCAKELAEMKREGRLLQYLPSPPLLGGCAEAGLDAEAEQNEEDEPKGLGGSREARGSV", "test": "Control: direct inhibition of GIRK currents in oocytes expressing GIRK1/4 in the absence of the D2R", "procedure": "Plasmids were linearized using the appropriate restriction enzymes (D2R, RGS4; XhoI and GIRK1/GIRK4; NotI), followed by in vitro transcription using the T7 mMessage mMachine kit (Ambion, Austin, TX, USA). cRNA concentration and purity were determined by spectrophotometry.\nFollowing RNA injection and 6 days of incubation at 12 °C, electrophysiological experiments were performed on the oocytes using the parallel eight-channel, semi-automated, two-electrode voltage-clamp OpusXpress 6000A (Molecular Devices, San José, CA) [13, 14]. Continuous perfusion, mediated by Minipuls 3 peristaltic pumps (Gilson, Middleton, WI, USA), was maintained at 0.5 mL/min. Data were acquired at a membrane potential of −80 mV and sampled at 156 Hz using OpusXpress 1.10.42 (Molecular Devices) software. To increase the inward-rectifier potassium channel current at negative potentials, a high potassium concentration extracellular perfusion fluid was used (64 mM NaCl, 25 mM KCl, 0.8 mM MgCl2, 0.4 mM CaCl2, 15 mM HEPES, 1 mM ascorbic acid, adjusted to pH 7.4 with NaOH), yielding a K^+ reversal potential of about −40 mV."}, "D2R E95A": {"tested_on": "D2R E95A", "design": "method as in PMID 29325769", "settings": "log values from pERK assay; cited from earlier work"}, "D2R L94A": {"tested_on": "D2R L94A", "design": "method as in PMID 29325769", "settings": "log values from pERK assay; cited from earlier work"}, "D2R S194A": {"tested_on": "D2R S194A", "design": "method as in PMID 29325769", "settings": "log values from pERK assay; cited from earlier work"}, "WT D2R [2]": {"tested_on": "WT D2R", "design": "method as in PMID 29325769", "settings": "log values from pERK assay; cited from earlier work"}, "D2R V91A": {"tested_on": "D2R V91A", "design": "method as in PMID 29325769", "settings": "log values from pERK assay; cited from earlier work"}},
  "note": "Read-outs that look alike come from different tables or passages of the source. Marks after values point to notes of the source that are not given here.",
  "data": [
    {"compound": "N#Cc1ccc2c(c1)CN(CC[C@H]1CC[C@H](NC(=O)c3cc4ccccc4[nH]3)CC1)CC2", "note": "[SB269,652, N-((trans)-4-(2-(7-cyano-3,4-dihydroisoquinolin-2(1H)-yl)ethyl)cyclohexyl)-1H-indole-2-carboxamide]", "values": [
      {"measurement": "Negative Cooperativity of SB269,652 Interaction with DA", "setting": "D2R S193A", "value": "↑ (1.47 ± 0.15 *) ^b"},
      {"measurement": "Negative Cooperativity of SB269,652 Interaction with DA", "setting": "WT D2R [1]", "value": "0.54 ± 0.11"},
      {"measurement": "SB269,652 IC50 at the D2R in previous reports", "setting": "D2R", "value": "high nM range"},
      {"measurement": "Ligand-mediated direct inhibition of GIRK currents (>10%)", "setting": "GIRK1/4", "value": "not observed"},
      {"measurement": "Negative Cooperativity of SB269,652 Interaction with DA", "setting": "D2R E95A", "value": "↓ 0.32 ± 0.14"},
      {"measurement": "Negative Cooperativity of SB269,652 Interaction with DA", "setting": "D2R L94A", "value": "↓ 0.70 ± 0.08"},
      {"measurement": "Negative Cooperativity of SB269,652 Interaction with DA", "setting": "D2R S194A", "value": "↓ 0.52 ± 0.09"},
      {"measurement": "Negative Cooperativity of SB269,652 Interaction with DA", "setting": "WT D2R [2]", "value": "1.23 ± 0.14"},
      {"measurement": "Negative Cooperativity of SB269,652 Interaction with DA", "setting": "D2R V91A", "value": "↓ 0.48 ± 0.16"}
    ]}
  ]
}
